Reference: patent US12115178B2, “Acylated active agents and methods of their use for the treatment of autoimmune disorders” (Flagship Pioneering Innovations V, Inc., priority 2018, dated 2024)

Columns and labels:
[1] = Assay 2. Stability in Simulated Intestinal Fluid (SIF); assay type: in vitro ADME; conditions: SIF pH 6.7 with pancreatin, 1 μM, 37° C.
Method: Assay 2. Stability of acylated active agents in Simulated Intestinal Fluid (SIF). This assay was used to assess the stability of an acylated active agent in a small intestine. Phosphate buffer was prepared by dissolving 0.42 g of sodium hydroxide pellets and 3.95 g of monobasic sodium phosphate monohydrate and 6.19 g of sodium chloride in ultrapure water (MilliQ®, Millipore Sigma, Darmstadt, Germany). The pH was adjusted to 6.7 using aq. HCl and aq. NaOH, as necessary, and the solution was diluted with ultrapure water to produce 1 L of the pH 6.7 buffer. 112 mg FaSSIF powder (Biorelevant™, London, UK) was dissolved in 50 mL of the pH 6.7 buffer. 2 to 3 mL of the resulting solution were then added to 500 mg pancreatin (Millipore Sigma, Darmstadt, Germany). The resulting mixture was agitated by finger tapping the vessel containing the mixture until milky suspension formed. At this time, the remainder of the 50 mL FaSSiF/pH 6.7 buffer solution was added. The resulting suspension was flipped upside down 10 times to produce SIF, which was used fresh. Test compounds were dissolved in DMSO stock to 1 mM. An aliquot of the DMSO stock solution was removed and diluted in the SIF media in 15 mL falcon tubes to produce a mixture with a tested compound concentration of 1 μM. A 1 mL aliquot was immediately removed and diluted once with 1 volume of acetonitrile for T0 timepoint. The mixture was sealed and agitated at 37° C. in an incubator. Aliquots (1 mL) were removed at regular intervals and immediately quenched by the addition of 1 volume of acetonitrile. The resulting samples were analyzed by LC/MS to determine degradation rates.

[2] = Assay 1. Stability in Simulated Gastric Fluid (SGF); assay type: in vitro ADME; conditions: SGF pH 1.6 with pepsin, 1 μM, 37° C.
Method: Assay 1. Stability of acylated active agents in Simulated Gastric Fluid (SGF). This assay was used to assess the stability of an acylated active agent in a stomach.
Medium was prepared by dissolving 2 g of sodium chloride in 0.6 L in ultrapure water (MilliQ®, Millipore Sigma, Darmstadt, Germany). The pH was adjusted to 1.6 with 1N hydrochloric acid, and the volume was then adjusted to 1 L with purified water.
60 mg FaSSIF powder (Biorelevant™, London, UK) were dissolved in 500 mL buffer (above). Pepsin was added (0.1 mg/mL) (Millipore Sigma, Darmstadt, Germany), and the solution was stirred. The resulting SGF media were used fresh for each experiment.
Test compounds were dissolved in DMSO stock to 1 mM. An aliquot of the DMSO stock solution was removed and diluted in the SGF Media in 15 mL falcon tubes to generate a total compound concentration of 1 μM. A 1 mL aliquot was immediately removed and diluted once with 1 volume of acetonitrile for T0 timepoint. The mixture was sealed and mixed at 37° C. in an incubator. Aliquots (1 mL) were removed at regular intervals and immediately quenched by the addition of 1 volume of acetonitrile. The resulting samples were analyzed by LC/MS to determine degradation rates in SGF.

Row | Compound | Assay 2 (SIF) (% @ Remaining 4 hours) [1] | Assay 1 (SGF) (% Remaining @ 1 hour) [2]
1 | CC(=O)Oc1ccc(C2CC(=O)c3c(OC(C)=O)cc(OC(C)=O)cc3O2)cc1 (stereo not shown) [Compound 9, [4-(5,7-diacetoxy-4-oxo-chroman-2-yl)phenyl] acetate] | A (<25% of the tested compound remaining) | C (>75% of the tested compound remaining)
2 | CCCC(=O)Oc1ccc(C2CC(=O)c3c(OC(=O)CCC)cc(OC(=O)CCC)cc3O2)cc1 (stereo not shown) [Compound 10, [4-[5,7-di(butanoyloxy)-4-oxo-chroman-2-yl]phenyl] butanoate] | A (<25% of the tested compound remaining) | B (25-75% of the tested compound remaining)
3 | CCC(=O)Oc1cc(OC(=O)CC)c2c(=O)c(OC(=O)CC)c(-c3cc(OC(=O)CC)c(OC(=O)CC)c(OC(=O)CC)c3)oc2c1 [Compound 13, [4-oxo-3,5-di(propanoyloxy)-2-[3,4,5-tri(propanoyloxy)phenyl]chromen-7-yl] propanoate] | A (<25% of the tested compound remaining) | B (25-75% of the tested compound remaining)
4 | CCC(=O)O[C@@H]1[C@H](OC(=O)CC)[C@H](C)OC(Oc2ccccc2C(=O)O)[C@H]1OC(=O)CC (stereo partly drawn) [Compound 25, 2-(((3S,4R,5R,6S)-6-methyl-3,4,5-tris(propionyloxy)tetrahydro-2H-pyran-2-yl)oxy)benzoic acid] | C (>75% of the tested compound remaining) | C (>75% of the tested compound remaining)
5 | CCC(=O)O[C@@H]1[C@@H](OC(=O)CC)[C@H](Oc2ccccc2C(=O)O)OC[C@@H]1OC(=O)CC [Compound 26, 2-(((2S,3R,4S,5S)-3,4,5-tris(propionyloxy)tetrahydro-2H-pyran-2-yl)oxy)benzoic acid] | A (<25% of the tested compound remaining) | C (>75% of the tested compound remaining)
6 | CCC(=O)O[C@@H]1[C@@H](OC(=O)CC)[C@H](Oc2ccccc2C(=O)O)OC[C@H]1OC(=O)CC [Compound 27, 2-(((2S,3R,4S,5R)-3,4,5-tris(propionyloxy)tetrahydro-2H-pyran-2-yl)oxy)benzoic acid] | B (25-75% of the tested compound remaining) | C (>75% of the tested compound remaining)
7 | CCCC(=O)O[C@@H]1[C@@H](OC(=O)CCC)[C@@H](Oc2ccccc2C(=O)O)OC[C@@H]1OC(=O)CCC [Compound 31, 2-(((2R,3R,4S,5S)-3,4,5-tris(butyryloxy)tetrahydro-2H-pyran-2-yl)oxy)benzoic acid] | A (<25% of the tested compound remaining) | C (>75% of the tested compound remaining)
8 | CCCC(=O)O[C@@H]1[C@H](OC(=O)CCC)[C@H](C)OC(Oc2ccc(N)cc2C(=O)O)[C@H]1OC(=O)CCC (stereo partly drawn) [Compound 41, 5-amino-2-(((3S,4R,5R,6S)-3,4,5-tris(butyryloxy)-6-methyltetrahydro-2H-pyran-2-yl)oxy)benzoic acid] | C (>75% of the tested compound remaining) | C (>75% of the tested compound remaining)
9 | CCCC(=O)O[C@@H]1[C@@H](OC(=O)CCC)[C@@H](OC(=O)CCc2c[nH]c3ccccc23)OC[C@@H]1OC(=O)CCC [Compound 81, (2R,3R,4S,5S)-4,5-bis(butanoyloxy)-2-{[3-(1H-indol-3-yl)propanoyl]oxy}oxan-3-yl butanoate] | A (<25% of the tested compound remaining) | B (25-75% of the tested compound remaining)
10 | CCC(=O)OC[C@H]1OC(O)[C@H](OC(=O)CC)[C@@H](OC(=O)CC)[C@@H]1OC(=O)CC (stereo partly drawn) [Compound 110, [(2R,3R,4S,5R)-6-hydroxy-3,4,5-tris(propanoyloxy)oxan-2-yl]methyl propanoate] | A (<25% of the tested compound remaining) | C (>75% of the tested compound remaining)
11 | CCC(=O)O[C@H]1[C@H](OC(=O)CC)[C@H](OC(=O)Cc2c[nH]c3ccccc23)O[C@@H](C)[C@H]1OC(=O)CC [Compound 118, (2S,3S,4R,5R,6S)-2-{[2-(1H-indol-3-yl)acetyl]oxy}-6-methyl-4,5-bis(propanoyloxy)oxan-3-yl propanoate] | A (<25% of the tested compound remaining) | C (>75% of the tested compound remaining)
12 | CCC(=O)OC1O[C@@H](C)[C@@H](OC(=O)CC)[C@@H](OC(=O)CC)[C@@H]1OC(=O)CC (stereo partly drawn) [Compound 125, (3S,4R,5R,6S)-6-methyl-3,4,5-tris(propanoyloxy)oxan-2-yl propanoate] | A (<25% of the tested compound remaining) | C (>75% of the tested compound remaining)
13 | CCC(=O)O[C@@H]1[C@@H](OC(=O)CC)[C@@H](OC(=O)CC)CO[C@H]1O [Compound 127, (3S,4S,5R,6R)-6-hydroxy-4,5-bis(propanoyloxy)oxan-3-yl propanoate] | B (25-75% of the tested compound remaining) | C (>75% of the tested compound remaining)
14 | CCC(=O)O[C@@H]1[C@@H](OC(=O)CC)[C@H](OC(=O)CC)CO[C@H]1O [Compound 129, (2R,3R,4S,5R)-2-hydroxy-4,5-bis(propanoyloxy)oxan-3-yl propanoate] | A (<25% of the tested compound remaining) | C (>75% of the tested compound remaining)
15 | CCC(=O)OC1OC[C@@H](OC(=O)CC)[C@H](OC(=O)CC)[C@H]1OC(=O)CC (stereo partly drawn) [Compound 130, (3R,4S,5R)-3,4,5-tris(propanoyloxy)oxan-2-yl propanoate] | A (<25% of the tested compound remaining) | C (>75% of the tested compound remaining)
16 | CCCC(=O)O[C@@H]1[C@H](OC(=O)CCC)[C@H](C)OC(O)[C@H]1OC(=O)CCC (stereo partly drawn) [Compound 136, (3S,4R,5R,6S)-4,5-bis(butanoyloxy)-2-hydroxy-6-methyloxan-3-yl butanoate] | A (<25% of the tested compound remaining) | C (>75% of the tested compound remaining)
17 | CCCC(=O)O[C@H]1[C@@H](OC(=O)CCC)COC(O)[C@@H]1OC(=O)CCC (stereo partly drawn) [Compound 151, (3S,4S,5R)-4,5-bis(butanoyloxy)-6-hydroxyoxan-3-yl butanoate] | A (<25% of the tested compound remaining) | C (>75% of the tested compound remaining)
18 | CCCC(=O)Oc1cc(OC(=O)CCC)c2c(=O)c(OC(=O)CCC)c(-c3cc(OC(=O)CCC)c(OC(=O)CCC)c(OC(=O)CCC)c3)oc2c1 [Compound 169, 3,5-bis(butanoyloxy)-4-oxo-2-[3,4,5-tris(butanoyloxy)phenyl]-4H-chromen-7-yl butanoate] | C (>75% of the tested compound remaining) | C (>75% of the tested compound remaining)
19 | CCCC(=O)Oc1cc(OC(=O)CCC)c2c(=O)cc(-c3ccc(OC(=O)CCC)c(OC(=O)CCC)c3)oc2c1 [Compound 171, 2-[3,4-bis(butanoyloxy)phenyl]-5-(butanoyloxy)-4-oxo-4H-chromen-7-yl butanoate] | A (<25% of the tested compound remaining) | C (>75% of the tested compound remaining)
20 | CC(=O)Oc1ccc(-c2oc3cc(OC(C)=O)cc(OC(C)=O)c3c(=O)c2OC(C)=O)cc1 [Compound 177, [4-(3,5,7-triacetoxy-4-oxo-chromen-2-yl)phenyl] acetate] | – | C (>75% of the tested compound remaining)
21 | CCC(=O)Oc1cc(OC(=O)CC)c2c(c1)O[C@H](c1cc(OC(=O)CC)c(OC(=O)CC)c(OC(=O)CC)c1)[C@H](OC(=O)c1cc(OC(=O)CC)c(OC(=O)CC)c(OC(=O)CC)c1)C2 [Compound 195, [(2R,3R)-5,7-di(propanoyloxy)-2-[3,4,5-tri(propanoyloxy)phenyl]chroman-3-yl] 3,4,5-tri(propanoyloxy)benzoate] | – | C (>75% of the tested compound remaining)
